This note sets out measurements from publication PMC5458179, “Oxidative DNA double strand breaks and autophagy in the antitumor effect of sterically hindered platinum(II) complexes in NSCLCs” (Oncotarget, 2017).

In one assay the test system is A549 cells. The experiment in a line: Quantification of apoptotic cells (annexin V/PI flow cytometry). It is filed as cell-based, human. How it is done:
(§1) The role of complex 3-induced autophagy in cell death was further analyzed (Figure 6). When A549 cancer cells were treated with complex 3 of 10 μM, the protein expression of LC3-II was increased (Figure 6A). […] Treatment with complex 3 for 24 h caused a 4.5-folds increase in cells undergoing autophagy (Figure 6C). […] Moreover, Bax and Bcl-2 expressions were measured by western blot analysis of whole cell lysates.
To investigate the role of ROS in complex 3-induced cell death, the level of intracellular H2O2 was measured. […] Exposure of A549 cells to NAC reduced levels of LC3-II from 2.3- to 1.5-folds (Figure 8B). […] In parallel, the complex 3-induced increase ratio of Bax/Bcl-2 was suppressed by NAC (Figure 8E).
The mode of cell death was analyzed by flow cytometry with annexin V/propidium iodide (PI) double-staining to detect membrane events according to a previous study. After individual treatments, whole cells were collected in 4-(2-hydroxyethyl)-1-piperazineethanesulfonic acid (HEPES) buffer containing 10 mM HEPES (pH 7.4), 140 mM NaCl, and 2.5 mM CaCl2. Cells were subsequently stained with annexin V (2.5 μg/ml) and PI (2 ng/ml) for 20 min, followed by analysis by flow cytometry (Beckman Coulter). Cystograms of the four quadrants in the figure were used to distinguish normal (annexin V^−/PI^−), early apoptotic (annexin V^+/PI^−), late apoptotic(annexin V^+/PI^+), and necrotic cells (annexin V^−/PI^+). The sum of early apoptosis and late apoptosis is presented as total apoptosis.

The test system of another assay is γ-H2AX. Kind of assay: Nuclear γH2AX foci analysis. Format: cell-based, human. To be noted: A549, 8 h and 12 h. The text has this:
(§2) The serine 139-phosphorylated form of chromatin-associated histone H2AX, namely γ-H2AX, is a key marker of cellular response to DDR, particularly DSBs. […] Obviously, pre-treatment of NAC could considerably alleviate the DDR triggered by complex 3 (Figure 5B). Therefore, we came to a conclusion that complex 3 caused DDR especially DSBs in A549 cells, which might happen after the increased level of intracellular ROS. In order to reveal the mechanisms underlying the enhanced DNA damage, complex 3 was studied to learn whether it could reduce the activation of DNA repair response including the co-localization of DSB repair protein MDC1/Aprataxin within nucleus. […] In order to reveal the mechanisms underlying DNA damage, complex 3 was studied to detect whether it could suppress the activation of DNA single strand break repair via the phosphorylation of SSB repair mediator/adaptor proteins XRCC1 within nucleus.
(§3) For assessment of DSBs repair kinetics we detected the total nuclear volume for an average of 50–60 nuclei per time points and cell type. Briefly, A549 cells were grown to confluence in 35 mm petri-dishes with 0.17 mm glass bottom. […] Non-specific binding was blocked by incubation with 5% FCS/PBS/0.1% Triton X-100 for 1 h at RT. […] Numbers of γH2AX foci were counted in 50–60 nuclei and plotted over time as previously described.

The next assay relates to Bax and Bcl-2. The experiment in a line: Western blot of Bax and Bcl-2. Format: cell-based, human. To be noted: A549, 10 μM, 24 h, whole cell lysates. How it is done:
as §1
Lysates were centrifuged at 12,000 g for 0.5 h at 4°C. The concentrations of total proteins were measured using the BCA assay method with Varioskan spectrofluorometer and spectrophotometer (Thermo, Waltham, MA) at 562 nm. Protein (20–100 μg) prepared from the indicated cells was loaded per lane and electrophoresed in 8% or 10% sodium dodecyl sulfate polyacrylamide gel electrophoresis (SDS-PAGE), and then transferred onto polyvinylidene difluoride (PVDF) Immobilon-P membrane (Bio-Rad, USA) using a transblot apparatus (Bio-Rad, USA). The membranes were blocked with 5% (w/v) non-fat milk at 0.5 h at 37°C, followed by overnight incubation at 4°C with primary antibodies diluted in PBST. After washing with PBST, the membranes were incubated for 1 h with an IRDye´800 conjugated secondary antibody diluted 1:20000 in PBST, and the labeled proteins were detected with an Odyssey Scanning System (Li-COR., Lincoln, Nebraska, USA).

The next assay relates to p-XRCC1. The experiment in a line: Immunostaining of SSB repair protein. It is filed as cell-based, human. To be noted: A549, 10 μM, 24 h.
Excerpt: as §2, §3

A further assay concerns cancer cells. The experiment in a line: Analysis of SSB (alkaline elution assay). Format: cell-based. The conditions noted are these: 10 μM, 15, 30 and 60 min. How it is done:
Thus, we further identified whether the increased ROS level serves as a cause of DDR. […] To investigate the extent of DNA damage induced by complex 3, we detected the numbers of normal SSB using an alkaline elution assay.
Then the cells were washed three times with PBSCMF (140 mM NaCl, 3 mM KCl, 8 mM Na2HPO4 and 1 mM KH2PO4). The numbers of SSBs were determined by an alkaline elution assay as previously described. The numbers of SSB in untreated cancer cells were subtracted in all cases.

The test system of assay [1] is A549 and NCI-H1299 cancer cells. The experiment in a line: H2O2 measurement (Amplex Red). To be noted: A549 and NCI-H1299, 10 μM, 2 h. It is filed as cell-based, human. How it is done: As excessive ROS generation is associated with cell-killing activity, we further examined whether complex 3 could also induce the formation of excessive ROS in A549 and NCI-H1299 cancer cells.
The production of H2O2 was determined with the Amplex® Red reagent (10-acetyl-3,7-dihydroxyphenoxazine; Molecular Probes). In the presence of horseradish peroxidase (HPR), the Amplex® Red reagent reacts in a 1:1 stoichiometry to produce the red-fluorescent oxidation product, resorufin. Consequently, resorufin generation allows the detection of the H2O2 released from biological compounds. […] Resorufin generation was measured over time using a fluorometer (Fluostar BMG Labtech) at 544 nm excitation and 590 nm emission.

Assay [2] shares this test system. The experiment in a line: Mitochondrial transmembrane potential (JC-1). Format: cell-based, human. The conditions noted are these: A549 and NCI-H1299, 10 μM, 24 h. The text has this: To further study the detailed process of apoptosis induced by complex 3 in NSCLC cells, we examined the mitochondrial membrane potential (ΔΨm), which is an important proapoptotic index for early apoptosis. We chose a mitochondria-specific and voltage-dependent fluorescent probe, JC-1, to observe whether there was loss in ΔΨm.
The electrical potential difference across inner mitochondrial membrane (ΔΨm) was monitored using the ΔΨm-specific fluorescent probe JC-1 (Molecular Probes Inc., Eugene, OR), a sensitive fluorescent dye. […] Red fluorescence is attributable to a potential-dependent aggregation in the mitochondria. Green fluorescence, reflecting the monomeric form of JC-1, appeared in the cytosol after mitochondrial membrane depolarization. Relative fluorescence intensities were monitored using the flow cytometry (FACSCalibur, Becton Dickinson), and analyzed by the software Modfit and Cell Quest (BD Biosciences, Franklin Lakes, NJ) with settings of FL1 (green) at 530 nm and FL2 (red) at 585 nm.

In the case of `CC(C)C[NH+]1[C@@H]2CCCC[C@H]2[NH+](CC(C)C)[Pt-2]12[O]C(=O)CC(=O)[O]2` (some centres unmarked) [Complex 3], the percentage of apoptosis in the assay with A549 cells (A549, 10 μM complex 18 h, without NAC) turned out to be 52.5%; in the assay on A549 cells (A549, 5 mM NAC 2 h pretreatment then 10 μM complex 18 h), 34.2%. Further, the γ-H2AX entry in the assay on γ-H2AX was “obvious increases in γ-H2AX”. For the same molecule, the “Bax and Bcl-2 protein levels” value in the assay on Bax and Bcl-2 was “Incremental changes in pro-apoptotic Bax and decreased changes anti-apoptotic Bcl-2 protein levels”. Besides, the “phosphorylation of XRCC1” value in the assay on p-XRCC1 is listed as “suppression of phosphorylation of XRCC1 compared with oxaliplatin”. In the assay on cancer cells, the “numbers of SSBs” value was “could effectively increase the numbers of SSBs”. Moreover, in assay [1], the “production of H2O2” value is “significantly higher”. Further, the “mitochondrial membrane potential (ΔΨm)” value in assay [2] was “remarkable decrement of ΔΨm”.
